Experimental data taken from patent US20240139197A1, “INHIBITION OF KDM5A FOR PROMOTING ANTIGEN PRESENTATION, INCREASING CD8+ T CELL INFILTRATION AND BOOSTING ANTI-TUMOR IMMUNE RESPONSE” (The Wistar Institute of Anatomy and Biology, priority 2022, published 2024).

Columns and labels:
H2-K1 on ID8 cells = assay: cell surface MHC class I H2-K1 by FACS, ID8; type: cell-based, mouse; conditions: ID8, in response to IFNγ
Text: FIG. 4A-FIG. 4M show KDM5A regulates antigen processing and presentation pathway. (FIG. 4A) Experimental strategy used to identify Kdm5a direct target genes. […] (FIG. 4B) CUT&RUN tracks of the newly identified Kdm5a target gene H2-K1 for Kdm5a and H3K4me3 in ID8 cells. (FIG. 4C) Expression of H2-K1 in doxycycline-inducible shKdm5a ID8 cells, Kdm5a inhibitor CPI-455, or Kdm5a knockout cells with or without IFNγ stimulation determined by RT-qPCR. (FIG. 4D) Cell surface expression of H2-K1 in control and Kdm5a knockout ID8 cells with or without IFNy stimulation was determined by FACS analysis. (FIG. 4E) Quantification of FIG. 4D. (FIG. 4F) Cell surface expression of H2-K1 in control and doxycyclineinducible Kdm5a-knockdown ID8 cells with or without IFNγ stimulation was determined by FACS analysis. (FIG. 4G) Quantification of FIG. 4F. (FIG. 4H) Cell surface expression of H2-K1 in D8 cells treated with vehicle or CPI-455 with or without IFNγ stimulation was determined by FACS analysis. (FIG. 4I) Quantification of FIG. 4H; An isotype matched IgG was used as a negative control for all the FACS analysis. […] Data represent mean±SEM of three biological repeats; P-value was calculated by using a two-tailed Student t test except in FIG. 4L by using Pearson r analysis test and FIG. 4M by using Fisher's exact test. […]

H3K4me3 in ID8 cells = assay: immunoblot of H3K4me3, ID8; type: cell-based, mouse; conditions: ID8, 10 μM
Procedure: FIG. 2A-FIG. 2J show KDM5A inhibition suppresses tumor growth in vivo in an immune-competent mouse model of ovarian cancer. (FIG. 2A) Expression of Kdm5a, H3K4me3, and a loading control β-actin in doxycycline-inducible shKdm5a ID8 mouse EOC cells treated with or without 2 μg/mL of doxycycline. (FIG. 2B) ID8 cells were plated into 24 well plates and treated with 2 μg/mL of doxycycline the same day. Cells were incubated for 8 days. Relative cell viability was determined by colony formation assay. (FIG. 2C) Expression of Kdm5a, H3K4me3, and a loading control β-actin in ID8 cells treated with 10uM CPI-455 or vehicle control. (FIG. 2D) ID8 cells were plated into 24 well plates and incubated with 10 μM CPI-455 for 8 days with fresh drug-containing media every 3 days. Relative cell viability was determined by colony formation assay. (FIG. 2E) Ascites produced in C57BL/6 mice injected with doxycycline-inducible shKdm5a ID8 cells treated with control or doxycycline containing food. (FIG. 2F) Quantification of ascites volumes from FIG. 2E. […] (FIG. 21) Quantification of ascites volumes from FIG. 2H. […] Data represent mean±SEM of three biological repeats or 5 mice per group; P-value was calculated by using a two-tailed Student t test except in FIG. 2G and FIG. 2J by log rank tests.
Cells were trypsinized and washed two times with PBS. […] Protein concentration was measured by the BCA assay (Pierce, Cat #23225). […]

For CPI-455, the “MHC class I presence on cell surface” value (H2-K1 on ID8 cells) was “increased MHC class I presence on cell surface” and the H3K4me3 levels (H3K4me3 in ID8 cells) was “increase H3K4me3 levels”.
